“Also recorded” adds a separate entry of the source. Where no end group is shown, it is not given here.
Key:
[1] = system: SSTR5; experiment: BRET-based Gi3 activation assay at SSTR5; format: cell-based; conditions: HEK-293S, 10 min after ligand, n=3 biological replicates
[2] = system: SSTR2 R184 to proline mutant; experiment: BRET-based Gi3 activation assay, SSTR2 ECL2 mutant R184 to proline; format: cell-based; conditions: HEK-293S
[3] = system: SSTR2; experiment: BRET-based G protein activation assay at SSTR2; format: cell-based; conditions: HEK-293S, 10 min after ligand, n=3 biological replicates
[4] = system: SSTR3 H192A; experiment: BRET-based Gi3 activation assay, SSTR3 H192A; format: cell-based; conditions: HEK-293S
[5] = system: SSTR4; experiment: BRET-based Gi3 activation assay at SSTR4; format: cell-based; conditions: HEK-293S, 10 min after ligand, n=3 biological replicates
[6] = system: SSTR1; experiment: BRET-based Gi3 activation assay at SSTR1; format: cell-based; conditions: HEK-293S, 10 min after ligand, n=3 biological replicates
[7] = system: SSTR3; experiment: BRET-based Gi3 activation assay at SSTR3; format: cell-based; conditions: HEK-293S, 10 min after ligand, n=3 biological replicates
[8] = system: SSTR2 R184 to alanine mutant; experiment: BRET-based Gi3 activation assay, SSTR2 ECL2 mutant R184 to alanine; format: cell-based; conditions: HEK-293S
[9] = system: SSTR2 ECL2 mutants; experiment: BRET assays comparing SST14 and SST28 at ECL2 mutants; format: cell-based; conditions: HEK-293S; for behavior of SST14 versus SST28 across ECL2 mutants: all of the mutants tested
[10] = system: chimeric constructs of SSTR2 (ECL swaps); experiment: BRET-based Gi3 activation assay, SSTR2 ECL2/ECL3 chimeras; format: cell-based; conditions: HEK-293S, n=3; for ligand recognition, effect of ECL swaps: nearly all ECL2/ECL3 swaps
[11] = system: SSTR3 H192T; experiment: BRET-based Gi3 activation assay, SSTR3 H192T; format: cell-based; conditions: HEK-293S
[12] = system: SSTR2 ECL2+/4 (entire ECL2 from SSTR4); experiment: BRET-based Gi3 activation assay, SSTR2 ECL2+/4 chimera; format: cell-based; conditions: ECL2+/4 vs ECL2/4, HEK-293S, n=3
[13] = system: SSTR1–5; conditions: cited from earlier work
[14] = system: SSTR2 Q187M; experiment: BRET-based Gi3 activation assay, SSTR2 Q187M; format: cell-based; conditions: HEK-293S, n=3 biological replicates
[15] = system: SSTR2 N276^6.55Q; experiment: BRET-based Gi3 activation assay, SSTR2 N276Q; format: cell-based; conditions: HEK-293S
[16] = system: SSTR2 Q102^2.63S; experiment: BRET-based Gi3 activation assay, SSTR2 Q102S; format: cell-based; conditions: HEK-293S

Substance	Gi3 BRET activation response [1]	SSTR2 activation (effect of mutation) [2]	Gi3 BRET activation response [3]	SST14-stimulated G protein activation (effect of mutation) [4]	Gi3 BRET activation response [5]	Gi3 BRET activation response [6]	Gi3 BRET activation response [7]	SSTR2 activation (effect of mutation) [8]	behavior of SST14 versus SST28 across ECL2 mutants [9]	impairment by ECL swaps, SST14 versus octreotide ([10]; ECL swaps)	ligand recognition, effect of ECL swaps [10]	SST14-stimulated G protein activation (effect of mutation) [11]	SST14-induced signaling compared to the shorter SSTR4 ECL2 swap [12]	strength of SST28 relative to SST14 ([9]; across all of the ECL2 mutants tested)	subtype selectivity [13]	octreotide signaling (effect of mutation) [14]	octreotide signaling (effect of mutation) [15]	octreotide-induced G protein signaling (effect of mutation) [16]
SST14: endogenous 14-residue somatostatin peptide (Cayman, 20809)	comparable response	substantially reduces SSTR2 activation	comparable response	deleterious to SST14-stimulated G protein activation	comparable response	comparable response	comparable response	substantially reduces SSTR2 activation	remarkably similar	far greater impairment for SST14 than octreotide	impaired ligand recognition of SST14 and octreotide to some degree; also recorded: non-linear effect on SST14-induced signaling	deleterious to SST14-stimulated G protein activation	improved SST14-induced signaling					
SST28: 28-residue somatostatin peptide (SANSNPAMAPRERKAGCKNFFWKTFTSC; ends and bridges not checked; cysteine pairing not given here)									remarkably similar					slightly weaker binder than SST14 (less than an order of magnitude)				
lanreotide															SSTR2-selective			
octreotide	reduced response	substantially reduces SSTR2 activation	activates SSTR2 most potently		almost no activity	almost no activity	reduced response	substantially reduces SSTR2 activation			impaired ligand recognition of SST14 and octreotide to some degree					enhances octreotide signaling	decreases octreotide signaling in a selective manner	selectively reduces octreotide-induced G protein signaling

From paper PMC11073612 (Nature structural & molecular biology, 2022)
